Molecular target: T1, human RORγt (Ligand Binding Domain) (Homo sapiens, UniProt P51449)
T1 construct: purchased Crelux (Planegg, Germany) batch no PC5032-1
T1 sequence (P51449 269-508 limits assumed): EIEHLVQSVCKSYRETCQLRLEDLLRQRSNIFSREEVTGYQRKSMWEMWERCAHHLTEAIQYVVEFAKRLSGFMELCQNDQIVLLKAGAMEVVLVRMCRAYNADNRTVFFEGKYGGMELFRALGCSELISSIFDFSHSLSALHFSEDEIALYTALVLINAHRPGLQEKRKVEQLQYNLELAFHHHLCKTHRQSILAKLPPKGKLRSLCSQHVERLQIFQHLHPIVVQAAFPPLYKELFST
Experiment: Fluorescence Polarization (FP) Assay
Settings: Fluorescence Polarization (FP) Assay; values given as upper bounds of activity ranges; read-out: FP activity range
Method: The activity of the compounds was evaluated using a Fluorescence Polarization (FP) Assay and, in most cases, a Th17 Assay and/or RORγ Reporter assay (also referred to as Gal4 assay). The FP assay is an in vitro assay monitoring binding within the ligand binding pocket. The RORγ and the Th17 assays are both cell-based assays monitoring functional activity of the compound assayed.
The total volume was 25 μl, in a black Perkin Elmer OptiPlate. As negative control, 1 μl DMSO was used. […] The probe is a fluorescently labeled (TAMRA) RORγt ligand identified by Nuevolution with a total molecular weight of 910 g/mole as shown in Graph A in FIG. 1.

`O=C(O)Cc1ccc(CNc2ncnc(N3CCCC3c3ccc(C(F)(F)F)cc3)c2F)cc1` (stereo not shown) [Example 32, 2-[4-[[[5-fluoro-6-[2-[4-(trifluoromethyl)phenyl]pyrrolidin-1-yl]pyrimidin-4-yl]amino]methyl]phenyl]acetic acid] and `O=C(O)c1ccc(CNc2ncnc(N3CCCC3c3ccc(C(F)(F)F)cc3)c2F)cc1` (stereo not shown) [Example 44, 4-[[[5-fluoro-6-[2-[4-(trifluoromethyl)phenyl]pyrrolidin-1-yl]pyrimidin-4-yl]amino]methyl]benzoic acid] cannot be ordered by IC50: less than 0.5 µM for the first, less than 10 µM for the second.

`CC(C)C[C@@H](Nc1ncnc(N2CC(C)CC2c2ccc(C(F)(F)F)cc2)c1F)C(N)=O` (stereo partly drawn) [Example 34, (2R)-2-[[5-fluoro-6-[4-methyl-2-[4-(trifluoromethyl)phenyl]pyrrolidin-1-yl]pyrimidin-4-yl]amino]-4-methyl-pentanamide] and `CC1CC(c2ccc(C(F)(F)F)cc2)N(c2ncnc(N[C@H](Cc3ccc(F)cc3)C(N)=O)c2F)C1` (stereo partly drawn) [Example 37, (2R)-2-[[5-fluoro-6-[4-methyl-2-[4-(trifluoromethyl)phenyl]pyrrolidin-1-yl]pyrimidin-4-yl]amino]-3-(4-fluorophenyl)propanamide] cannot be ordered by IC50: less than 1 µM for the first, less than 1 µM for the second.

`CC(CC1CCOCC1)Nc1ncnc(N2CCCC2c2ccc(C(F)(F)F)cc2)c1F` (stereo not shown) [Example 41, 5-fluoro-N-(1-methyl-2-tetrahydropyran-4-yl-ethyl)-6-[2-[4-(trifluoromethyl)phenyl]pyrrolidin-1-yl]pyrimidin-4-amine] and `CCC(Nc1ncnc(N2CCCC2c2ccc(C(F)(F)F)cc2)c1F)c1ccc2c(c1)OCCCO2` (stereo not shown) [Example 55, N-[1-(3,4-dihydro-2H-1,5-benzodioxepin-7-yl)propyl]-5-fluoro-6-[2-[4-(trifluoromethyl)phenyl]pyrrolidin-1-yl]pyrimidin-4-amine] cannot be ordered by IC50: less than 2 µM for the first, less than 10 µM for the second.

`CC1(C)NC(=O)N(Cc2ccc(CNc3ncnc(N4CCCC4c4ccc(C(F)(F)F)cc4)c3F)cc2)C1=O` (stereo not shown) [Example 45, 3-[[4-[[[5-fluoro-6-[2-[4-(trifluoromethyl)phenyl]pyrrolidin-1-yl]pyrimidin-4-yl]amino]methyl]phenyl]methyl]-5,5-dimethyl-imidazolidine-2,4-dione] and `NS(=O)(=O)Cc1ccc(CNc2ncnc(N3CCCC3c3ccc(C(F)(F)F)cc3)c2F)cc1` (stereo not shown) [Example 46, [4-[[[5-fluoro-6-[2-[4-(trifluoromethyl)phenyl]pyrrolidin-1-yl]pyrimidin-4-yl]amino]methyl]phenyl]methane-sulfonamide] cannot be ordered by IC50: less than 10 µM for the first, less than 1 µM for the second.

`Fc1c(NCc2ccc(C(F)(F)F)cc2)ncnc1N1CCCC1c1ccc(C(F)(F)F)cc1` (stereo not shown) [Example 48, 5-fluoro-N-[[4-(trifluoromethyl)phenyl]methyl]-6-[2-[4-(trifluoromethyl)phenyl]pyrrolidin-1-yl]pyrimidin-4-amine] and `Fc1c(NCc2ccc(OCC3CCCO3)cc2)ncnc1N1CCCC1c1ccc(C(F)(F)F)cc1` (stereo not shown) [Example 59, 5-fluoro-N-[[4-(tetrahydrofuran-2-ylmethoxy)phenyl]methyl]-6-[2-[4-(trifluoromethyl)phenyl]pyrrolidin-1-yl]pyrimidin-4-amine] cannot be ordered by IC50: less than 2 µM for the first, less than 10 µM for the second.

`O=C(c1ccc(CNc2ncnc(N3CCCC3c3ccc(C(F)(F)F)cc3)c2F)cc1)N1CCOCC1` (stereo not shown) [Example 57, [4-[[[5-fluoro-6-[2-[4-(trifluoromethyl)phenyl]pyrrolidin-1-yl]pyrimidin-4-yl]amino]methyl]phenyl]-morpholino-methanone] and `NC(=O)C1CCCN(c2ccc(CNc3ncnc(N4CCCC4c4ccc(C(F)(F)F)cc4)c3F)cc2)C1` (stereo not shown) [Example 61, 1-[4-[[[5-fluoro-6-[2-[4-(trifluoromethyl)phenyl]pyrrolidin-1-yl]pyrimidin-4-yl]amino]methyl]phenyl]piperidine-3-carboxamide] cannot be ordered by IC50: less than 10 µM for the first, less than 10 µM for the second.

`OCC1CCN(c2ccc(CNc3ncnc(N4CCCC4c4ccc(C(F)(F)F)cc4)c3F)cn2)CC1` (stereo not shown) [Example 58, [1-[5-[[[5-fluoro-6-[2-[4-(trifluoromethyl)phenyl]pyrrolidin-1-yl]pyrimidin-4-yl]amino]methyl]-2-pyridyl]-4-piperidyl]methanol] gave an IC50 of less than 10 µM.
